{
  "source": "paper PMC12281142",
  "about": "“A potent phenylalkylamine disrupts mycobacterial membrane bioenergetics and augments bactericidal activity of bedaquiline” (iScience, 2025)",
  "key": {"M. bovis BCG [1]": {"tested_on": "M. bovis BCG", "type": "cell-based, Mycobacterium bovis BCG", "settings": "2XMIC90BCG (1.1 mM, 500 μg/mL)"}, "Vero E6": {"tested_on": "Vero E6", "assay": "Cytotoxicity in Vero E6 cells", "type": "cell-based, African green monkey", "settings": "Chlorocebus sabaeus, Vero C1008, 48 h, growth suppressed by 50% vs untreated", "experimental": "(§1) To each well in a 96-well plate, 50,000 cells in 100 μL media were seeded. Vero E6 and HepG2 cells were incubated overnight in DMEM for cell adherence at 37°C and 5% CO2. The media was removed from the wells and 100 μL solution made up of fresh DMEM media (99 μL) and the test compound (1 μL from a DMSO stock solution that was […] more concentrated than the final concentration in the well) was then added to each well. DMSO content of each well was consistently kept at 0.5 %v/v. Treated plates were incubated for 48 h (5% CO2, 37°C), after which 10 μL of Celltitre 96 Aqueous One Solution was added to each well, without removal of media, and incubated for a further 3 h. Subsequently, absorbance readings were taken at 490 nm on a Tecan GENios Microplate Reader.\n(§2) Cell viability was determined from the expression: Cellviability(%)={[Absorbance(cells+cpd)−Absorbance(cpd)]/[Absorbance(cells+vc)−Absorbance(vc)]}×100% where Absorbance (cells + cpd) = absorbance of wells containing cells and test compound in vehicle (media +0.5% DMSO); Absorbance (cpd) = absorbance of wells containing test compound in vehicle without cells (compound control); Absorbance (cells + vc) = absorbance of wells containing cells in vehicle (vc) only (untreated cells); Absorbance (vc) = absorbance of wells containing vehicle without cells (vehicle control). The percentage viability readings were plotted against log(concentration) on GraphPad Prism (Version 7.0, San Diego, CA) to give a sigmoidal curve, from which IC50, defined as the concentration of the compound that reduced cell viability by 50%, was obtained. At least 3 separate determinations were carried out."}, "M. bovis BCG [2]": {"tested_on": "M. bovis BCG", "type": "cell-based, Mycobacterium bovis BCG", "settings": "2x MIC90BCG, 6 h time point, cultures still viable"}, "Mab complex": {"tested_on": "Mab complex", "assay": "MIC against Mab complex (summary over the 3 subspecies)", "type": "cell-based, Mycobacterium abscessus", "settings": "Mycobacteroides abscessus; range over subspecies"}, "cat papillary muscle": {"tested_on": "cat papillary muscle", "settings": "cited from earlier work"}, "M. bovis BCG [3]": {"tested_on": "M. bovis BCG", "assay": "microbe, parasite or virus in culture", "type": "cell-based, Mycobacterium bovis BCG", "settings": "Mycobacterium tuberculosis variant bovis BCG, BCG"}, "[4]": {"tested_on": "Mab bolletii CCUG 50184-T", "assay": "MIC against Mab bolletii CCUG 50184-T", "type": "cell-based, Mycobacterium abscessus subsp. bolletii", "settings": "Mycobacteroides abscessus; for MIC50: CCUG50184, 72 h, 3 days"}, "[5]": {"tested_on": "Mab massiliense CCUG 48898-T", "assay": "MIC against Mab massiliense CCUG 48898-T", "type": "cell-based, Mycobacterium abscessus subsp. massiliense", "settings": "Mycobacteroides abscessus; for MIC50: CCUG48898, 72 h, 3 days"}, "HepG2": {"tested_on": "HepG2", "assay": "Cytotoxicity in HepG2 cells", "type": "cell-based, human", "settings": "Homo sapiens, HepG2; 48 h, growth suppressed by 50% vs untreated", "experimental": "as §1, §2"}, "mycobacterial growth": {"tested_on": "mycobacterial growth", "settings": "cited from earlier work"}, "Mtb H37Rv": {"tested_on": "Mtb H37Rv", "assay": "MIC by broth microdilution against Mtb H37Rv", "type": "cell-based, Mycobacterium tuberculosis", "settings": "Mycobacterium tuberculosis, H37RV"}, "Mab abscessus ATCC 19977": {"tested_on": "Mab abscessus ATCC 19977", "assay": "MIC against Mab abscessus ATCC 19977", "type": "cell-based, Mycobacterium abscessus subsp. abscessus", "settings": "Mycobacteroides abscessus; for MIC50: ATCC19977, 72 h, 3 days"}, "[6]": {"tested_on": "nonreplicating M. bovis BCG", "type": "cell-based, Mycobacterium bovis BCG", "settings": "4x MIC90BCG, 5 days, Wayne model"}, "[7]": {"settings": "7H9 medium (first value of cell)"}, "[8]": {"settings": "CA-MHB medium (second value of cell)"}},
  "note": "Where “and” joins values, the source holds several entries; their conditions need not be identical. Identical values can stand only once. Like-named read-outs stand apart in the source and are kept apart here.",
  "data": [
    {"molecule": "COc1ccc(CCN(C)CCCC(C#N)(c2ccc(OC)c(OC)c2)C(C)C)cc1OC", "note": "(stereo not drawn) [VP, verapamil, reference compound]", "values": [
      {"measurement": "time to reduce the CFU count to the detection limit", "setting": "M. bovis BCG [1]", "value": 14, "unit": "days"},
      {"measurement": "IC50", "setting": "Vero E6", "value": 543, "unit": "µM"},
      {"measurement": "membrane depolarization", "setting": "M. bovis BCG [2]", "value": "depolarization was evident"},
      {"measurement": "MIC50", "setting": "Mab complex", "value": "500 to 564", "unit": "µg/mL"},
      {"measurement": "ED50 (concentration to reduce maximal contractility of the papillary muscle by 50%)", "setting": "cat papillary muscle", "value": 3.5, "unit": "µM"},
      {"measurement": "MIC50", "setting": "M. bovis BCG [3]; 120 h, read-out: MIC50 BCG With Glycerol, 7H9 broth with glycerol, 5 days", "value": 210, "unit": "µM"},
      {"measurement": "MIC50", "setting": "M. bovis BCG [3]; 120 h, read-out: MIC50 BCG Without Glycerol, 7H9 broth without glycerol, 5 days", "value": 450, "unit": "µM"},
      {"measurement": "MIC50", "setting": "M. bovis BCG [3]; M. bovis BCG, broth dilution, growth reduced by 50% vs untreated", "value": 210, "unit": "µM"},
      {"measurement": "MIC90", "setting": "M. bovis BCG [3]; M. bovis BCG, broth dilution, growth reduced by 90% vs untreated", "value": 550, "unit": "µM"},
      {"measurement": "MIC50", "setting": "M. bovis BCG [3]; read-out: MIC50 BCG, 7H9 with glycerol", "value": 96, "unit": "µg/mL"},
      {"measurement": "MIC50", "setting": "M. bovis BCG [3]; read-out: MIC50 BCG, 7H9 without glycerol", "value": 205, "unit": "µg/mL"},
      {"measurement": "MIC90", "setting": "M. bovis BCG [3]; read-out: MIC90 (Table S1), M. bovis BCG, broth dilution", "value": 550, "unit": "µM"},
      {"measurement": "MIC90", "setting": "M. bovis BCG [3]; read-out: MIC90 BCG, M. bovis BCG", "value": 250, "unit": "µg/mL"},
      {"measurement": "MIC90", "setting": "[4]; CCUG50184, 7H9 broth (first value)", "value": 2200, "unit": "µM"},
      {"measurement": "MIC50", "setting": "[4]; [7]", "value": 1450, "unit": "µM"},
      {"measurement": "MIC50", "setting": "[4]; [8]", "value": 1250, "unit": "µM"},
      {"measurement": "MIC90", "setting": "[4]; CCUG50184, camH broth (second value)", "value": "> 2500", "unit": "µM"},
      {"measurement": "MIC90", "setting": "[5]; CCUG48898, 7H9 broth (first value)", "value": 2250, "unit": "µM"},
      {"measurement": "MIC50", "setting": "[5]; [7]", "value": 1100, "unit": "µM"},
      {"measurement": "MIC50", "setting": "[5]; [8]", "value": 1150, "unit": "µM"},
      {"measurement": "MIC90", "setting": "[5]; CCUG48898, camH broth (second value)", "value": "> 2500", "unit": "µM"},
      {"measurement": "IC50", "setting": "HepG2", "value": 504, "unit": "µM"},
      {"measurement": "concentration to inhibit mycobacterial growth", "setting": "mycobacterial growth", "value": "~500 μM and ~227 μg/mL"},
      {"measurement": "MIC50", "setting": "Mtb H37Rv; 120 h, read-out: MIC50 Mtb H37Rv", "value": 241, "unit": "µM"},
      {"measurement": "MIC90", "setting": "Mtb H37Rv; 120 h, second value of cell MIC50/MIC90, incubation 5 days, read-out: MIC90 Mtb H37Rv", "value": 540, "unit": "µM"},
      {"measurement": "MIC50", "setting": "Mtb H37Rv; read-out: MIC50 Mtb", "value": 110, "unit": "µg/mL"},
      {"measurement": "MIC90", "setting": "Mtb H37Rv; read-out: MIC90 Mtb", "value": 246, "unit": "µg/mL"},
      {"measurement": "MIC90", "setting": "Mab abscessus ATCC 19977; ATCC19977, 7H9 broth (first value), read-out: MIC90 Mab abscessus ATCC 19977", "value": 2400, "unit": "µM"},
      {"measurement": "MIC50", "setting": "Mab abscessus ATCC 19977; [7]", "value": 1290, "unit": "µM"},
      {"measurement": "MIC50", "setting": "Mab abscessus ATCC 19977; [8]", "value": 1200, "unit": "µM"},
      {"measurement": "MIC90", "setting": "Mab abscessus ATCC 19977; ATCC19977, Mab abscessus, read-out: MIC90 abscessus", "value": "2400 µM and 1100 µg/mL"},
      {"measurement": "MIC90", "setting": "Mab abscessus ATCC 19977; ATCC19977, camH broth (second value), read-out: MIC90 Mab abscessus ATCC 19977", "value": "> 2500", "unit": "µM"},
      {"measurement": "kill of hypoxic M. bovis BCG", "setting": "[6]", "value": "10^2 fold"}
    ]}
  ]
}
